According to PMC7878868, “Mechanisms of feedback inhibition and sequential firing of active sites in plant aspartate transcarbamoylase” (Nature Communications, 2021):
Numbering of substitutions follows the chain as printed. Names may count otherwise. “And” between values parts separate entries of the source, which are not always exact repeats. Identical values can stand only once.

Columns and labels:
[1] = target: T1, atATC (Arabidopsis ATC aa 82–390) WT (Arabidopsis thaliana, UniProt P49077); test: Isothermal titration calorimetry (ITC), atATC WT; format: binding; conditions: site 1
T1 construct: 2.6 kDa fusion tag (modified pET28a); made in house; host or cells: E. coli BLR(DE3)-pLysS
T1 sequence (P49077 82-390): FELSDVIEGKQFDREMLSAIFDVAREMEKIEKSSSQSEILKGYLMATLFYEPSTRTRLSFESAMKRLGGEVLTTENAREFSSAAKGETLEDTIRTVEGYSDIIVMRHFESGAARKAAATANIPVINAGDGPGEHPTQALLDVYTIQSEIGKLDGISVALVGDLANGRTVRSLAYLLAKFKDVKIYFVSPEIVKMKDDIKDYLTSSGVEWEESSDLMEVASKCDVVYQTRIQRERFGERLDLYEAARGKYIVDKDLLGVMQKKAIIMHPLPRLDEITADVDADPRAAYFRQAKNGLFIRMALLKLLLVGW
Description: (§1) Experiments were performed in an Auto-iTC200 calorimeter (MicroCal, Malvern-Panalytical) at 25 °C with a 0.2 ml reaction cell and 30–40 µM protein solution (in protomer units) in the cell. […] All solutions were in GF buffer and degassed and mixed in the cell by stirring at 750 rpm. Data analysis was performed with Origin 7 (OriginLab) using a general three-site cooperative and a non-cooperative binding model, restricted to one or two ligand binding sites when convenient[24],[62],[63]. Non-linear least-squares regression analysis was employed to estimate dissociation constants for the interaction of the different ligands with ATC.

atATC-F161A [2] = target: T2, atATC-F161A (Arabidopsis thaliana, UniProt P49077, F161A); test: biochemical; format: binding
T2 construct: 2.6 kDa fusion tag (modified pET28a); made in house; host or cells: E. coli BLR(DE3)-pLysS
T2 sequence (P49077 82-390 F161A): T1 sequence (P49077 82-390) with F80A
Description: as §1

atATC WT = target: T3, atATC WT (Arabidopsis thaliana, UniProt P49077); test: Colorimetric ATC activity assay, atATC WT; format: biochemical; conditions: 10 mM Asp
T3 construct: 2.6 kDa fusion tag (modified pET28a); made in house; host or cells: E. coli BLR(DE3)-pLysS
T3 sequence (P49077 82-390): T1 sequence (P49077 82-390)
Description: (§2) Activity was assayed by a colorimetric method[64] adapted to a 96-well plate format. […] Reagent B is light sensitive and was stored at 4 °C in the dark. The color reagents were gently mixed and stored at 4 °C in the dark until added to the sample. Reaction tubes were closed, boiled at 95 °C for 15 min, and kept in the dark for 30 min before measuring the absorbance at 450 nm in a Tecan infinite m200 microplate reader (Tecan). […] Data analysis was done with GraphPad. […] Protein concentration in the assay was 0.3 µM (0.01 mg ml^−1) both for WT and F161A.

atATC-F161A [3] = target: T2, atATC-F161A; test: Colorimetric ATC activity assay, atATC F161A; format: biochemical; conditions: for Activity F161A: 10 mM Asp
Description: as §2

Arabidopsis seedlings = test: Seedling assay in liquid culture with PALA (fresh weight, root length); format: in vivo, Arabidopsis thaliana; conditions: for fresh weight compared to untreated seedlings / root length relative to untreated seedlings / root length, average: 7 days; for fresh weight compared to untreated seedlings: n = 3 (3 times 10 seedlings); for root length relative to untreated seedlings / root length, average: n = 30; for root length, average: untreated 2.68 ± 0.49 cm; for Freshweight, single replicates (10 seedlings): source data of Figure 3a; for Freshweight, average (10 seedlings): 0 mM PALA 0.1699 g
Description: For DNA isolation, tissue collection and phenotypic inspection, wild-type Col-0 and transgenic Arabidopsis thaliana (L.) Heynh. plants (ecotype Columbia) were used throughout. Plants were grown in standardized soil (ED73 Einheitserde, Humuswerke Patzer) soil under long day conditions (120 μmol quanta m^−2 s^−1 in a […] regime, temperature 22 °C, humidity 60%). Prior to germination, seeds were incubated for 24 h in the dark at 4 °C for imbibition. […] The liquid cultures were maintained on a shaker at 100 rpm under the same light and temperature conditions as soil-grown plants. Leaf extract of wild-type and mutants was prepared by homogenizing leaf material in extraction buffer (50 mM HEPES-KOH pH 7.2, 5 mM MgCl2, 2 mM phenylmethylsulfonyl fluoride (PMSF) on ice. The homogenous extract was centrifuged at 20,000g for 10 min at 4 °C. The supernatant was collected and stored on ice until use.

plant ATCs = test system: plant ATCs; design: method as in PMID 14479231, doi:10.1093/jxb/40.10.1121; conditions: cited from earlier work
[4] = substrate: NC(=O)OP(=O)(O)O; test: purified protein, by the assay type; conditions: other: WT, CP variable, 10 mM Asp, absence of UMP; pH 8.3
[5] = target: the molecule itself; test: SEC-MALS; 400 ul of purified protein at 1.4 mg/ml on Superdex 200 10/300 in GF buffer (20 mM Tris pH 7.0, 0.1 M NaCl, 2% glycerol, 0.2 mM TCEP), 0.5 ml/min; self-association: homotrimer
[6] = substrate: NC(=O)OP(=O)(O)O; test: Colorimetric ATC activity assay, atATC F161A; format: biochemical, Arabidopsis thaliana; conditions: other: F161A, CP variable, 10 mM Asp; pH 8.3
Description: Activity was assayed by a colorimetric method[64] adapted to a 96-well plate format[24]. […] Reagent B is light sensitive and was stored at 4 °C in the dark. The color reagents were gently mixed and stored at 4 °C in the dark until added to the sample. Reaction tubes were closed, boiled at 95 °C for 15 min, and kept in the dark for 30 min before measuring the absorbance at 450 nm in a Tecan infinite m200 microplate reader (Tecan). […] Data analysis was done with GraphPad. In the absence of inhibitors, WT kinetics obey Michaelis-Menten equation v = [Vmax·X/K0.5 + X], where X is substrate concentration and K0.5 is the substrate concentration at which the initial rate (v) is one-half of the maximum velocity (Vmax)]. […] Protein concentration in the assay was 0.3 µM (0.01 mg ml^−1) both for WT and F161A.

[7] = target: the molecule itself; test: crystal structure; X-ray crystal structures of the trimer (with UMP, apo, with PALA, with PALA + CP, with CP; F161A with UMP or PALA); sitting-drop vapor diffusion at room temperature, PEG 3350 conditions, data at 100 K

Molecule: O=C(O)C[C@H](NC(=O)CP(=O)(O)O)C(=O)O [PALA, N-(phosphonacetyl)-L-aspartate]
- -TΔS Site 1 ([1]; ITC): -21.6 kcal/mol
- ΔG Site 1 ([1]; ITC): -8.5 kcal/mol
- ΔH Site 1 ([1]; ITC): 13.1 kcal/mol
- Kd ([1]; KD Site 1, ITC, 25 °C): 590 nM and 600 nM
- Kd (atATC-F161A [2]): 120 nM
- N, number of binding sites per protein trimer according to the ligand binding model (atATC-F161A [2]; ITC, F161A): 1
- fold higher affinity of F161A than WT (atATC-F161A [2]; ITC, F161A versus WT): 5 fold
- -TΔS Site 1 (atATC-F161A [2]; ITC, F161A, site 1): -20.4 kcal/mol
- ΔG Site 1 (atATC-F161A [2]; ITC, F161A, site 1): -9.4 kcal/mol
- ΔH Site 1 (atATC-F161A [2]; ITC, F161A, site 1): 11.0 kcal/mol
- Activity WT (atATC WT; 0.01 mM PALA, [CP] 0.16 mM): 17.11 nmol / min μg and 10.69 nmol / min μg and 14.77 nmol / min μg
- Activity WT (atATC WT; 0.01 mM PALA, [CP] 0.31 mM): 20.84 nmol / min μg and 20.81 nmol / min μg and 18.28 nmol / min μg
- Activity WT (atATC WT; 0.01 mM PALA, [CP] 0.63 mM): 27.62 nmol / min μg and 26.91 nmol / min μg and 26.59 nmol / min μg
- Activity WT (atATC WT; 0.01 mM PALA, [CP] 1.25 mM): 40.50 nmol / min μg and 40.46 nmol / min μg and 40.29 nmol / min μg
- Activity WT (atATC WT; 0.01 mM PALA, [CP] 2.50 mM): 50.62 nmol / min μg and 53.39 nmol / min μg and 49.84 nmol / min μg
- Activity WT (atATC WT; 0.01 mM PALA, [CP] 5.00 mM): 66.15 nmol / min μg and 65.77 nmol / min μg and 55.96 nmol / min μg
- Activity WT (atATC WT; 0.1 mM PALA, [CP] 0.31 mM): 4.77 nmol / min μg and 4.92 nmol / min μg and 5.38 nmol / min μg
- Activity WT (atATC WT; 0.1 mM PALA, [CP] 0.63 mM): 10.55 nmol / min μg and 10.43 nmol / min μg and 10.56 nmol / min μg
- Activity WT (atATC WT; 0.1 mM PALA, [CP] 1.25 mM): 19.60 nmol / min μg and 18.57 nmol / min μg and 27.14 nmol / min μg
- Activity WT (atATC WT; 0.1 mM PALA, [CP] 2.50 mM): 27.12 nmol / min μg and 29.01 nmol / min μg and 31.29 nmol / min μg
- Activity WT (atATC WT; 0.1 mM PALA, [CP] 5.00 mM): 33.74 nmol / min μg and 33.21 nmol / min μg
- Activity F161A (atATC-F161A [3]; 0.01 mM PALA, [CP] 0.15 mM): 4.41 nmol / min μg and 6.29 nmol / min μg and 5.34 nmol / min μg
- Activity F161A (atATC-F161A [3]; 0.01 mM PALA, [CP] 0.31 mM): 5.13 nmol / min μg and 6.44 nmol / min μg and 9.47 nmol / min μg
- Activity F161A (atATC-F161A [3]; 0.01 mM PALA, [CP] 0.63 mM): 25.34 nmol / min μg and 31.98 nmol / min μg and 21.75 nmol / min μg
- Activity F161A (atATC-F161A [3]; 0.01 mM PALA, [CP] 1.25 mM): 39.80 nmol / min μg and 37.97 nmol / min μg and 40.98 nmol / min μg
- Activity F161A (atATC-F161A [3]; 0.01 mM PALA, [CP] 2.50 mM): 38.56 nmol / min μg and 36.28 nmol / min μg and 37.57 nmol / min μg
- Activity F161A (atATC-F161A [3]; 0.1 mM PALA, [CP] 1.25 mM): 11.15 nmol / min μg and 10.75 nmol / min μg and 7.03 nmol / min μg
- Activity F161A (atATC-F161A [3]; 0.1 mM PALA, [CP] 2.50 mM): 5.52 nmol / min μg and 9.09 nmol / min μg and 9.11 nmol / min μg
- sensitivity of enzyme activity to PALA compared to WT (atATC-F161A [3]; F161A): more sensitive
- fresh weight compared to untreated seedlings (Arabidopsis seedlings; 0.2 mM PALA): 59%
- root length relative to untreated seedlings (Arabidopsis seedlings; 0.2 mM PALA): 36%
- root length, average (Arabidopsis seedlings; 0.2 mM PALA): 0.96 ± 0.22 cm and 0.962 cm
- Freshweight, single replicates (10 seedlings) (Arabidopsis seedlings; 0.2 mM PALA): 0.1006 g and 0.0950 g and 0.1032 g
- Freshweight, average (10 seedlings) (Arabidopsis seedlings; 0.2 mM PALA): 0.0996 g
- fresh weight compared to untreated seedlings (Arabidopsis seedlings; 0.4 mM PALA): 23%
- root length relative to untreated seedlings (Arabidopsis seedlings; 0.4 mM PALA): 8%
- root length, average (Arabidopsis seedlings; 0.4 mM PALA): 0.21 ± 0.09 cm and 0.213 cm
- Freshweight, single replicates (10 seedlings) (Arabidopsis seedlings; 0.4 mM PALA): 0.0435 g and 0.0329 g and 0.0417 g
- Freshweight, average (10 seedlings) (Arabidopsis seedlings; 0.4 mM PALA): 0.0394 g
- chlorosis of seedlings (Arabidopsis seedlings; PALA-treated seedlings): Chlorosis was also apparent

Molecule: O=c1ccn([C@@H]2O[C@H](COP(=O)(O)OP(=O)(O)O)[C@@H](O)[C@H]2O)c(=O)[nH]1 [UDP]
- inhibition of plant ATCs (plant ATCs): not inhibitors

Molecule: O=c1ccn([C@@H]2O[C@H](COP(=O)(O)OP(=O)(O)OP(=O)(O)O)[C@@H](O)[C@H]2O)c(=O)[nH]1 [UTP]
- inhibition of plant ATCs (plant ATCs): not inhibitors

B1: Arabidopsis aspartate transcarbamoylase, construct spanning aa 82-390 (atATC) (enzyme, Arabidopsis thaliana, UniProt P49077 82-390, looked up)
chain: T1 sequence (P49077 82-390)
notes: Aspartate transcarbamoylase (ATC; pyrB; At3g20330) of Arabidopsis thaliana, aa 82-390 of the 390 aa precursor protein with an N-terminal chloroplast transit peptide; amplified from cDNA; No cleavage of the tag is described, and the text speaks of the size of purified atATC 'excluding the 2.6 kDa fusion tag', so the tag was probably kept; It is probably a His tag (Ni-sepharose purification); The …
- K0.5 [4]: 0.46 ± 0.10 mM
- stoichiometry N [5]: 3

B2: atATC mutant F161A (enzyme, Arabidopsis thaliana, UniProt P49077 82-390, looked up)
chain: T1 sequence (P49077 82-390) with F80A
notes: Aspartate transcarbamoylase (ATC; pyrB; At3g20330) of Arabidopsis thaliana, aa 82-390 of the 390 aa precursor protein, with F161 replaced by Ala; Made by site-directed mutagenesis of the atATC construct; same tag and purification as m1; also called atATC-F161A; source: E. coli BLR(DE3)-pLysS, purified (Ni-sepharose, size-exclusion chromatography on Superdex 75); not shown: fusion tag (2.6 kDa)
- K0.5 [6]: 0.62 ± 0.13 mM
- binding result [7]: binds
